Biological target: Substance P receptors (GPI) (Cavia porcellus, UniProt P30547)
Test: Substance P antagonist assay in guinea pig ileum with naloxone
Format: cell-based
Settings: against Substance P induced contraction, 1 μM naloxone, n = 4

Substance P receptors (GPI), sequence (P30547 whole entry): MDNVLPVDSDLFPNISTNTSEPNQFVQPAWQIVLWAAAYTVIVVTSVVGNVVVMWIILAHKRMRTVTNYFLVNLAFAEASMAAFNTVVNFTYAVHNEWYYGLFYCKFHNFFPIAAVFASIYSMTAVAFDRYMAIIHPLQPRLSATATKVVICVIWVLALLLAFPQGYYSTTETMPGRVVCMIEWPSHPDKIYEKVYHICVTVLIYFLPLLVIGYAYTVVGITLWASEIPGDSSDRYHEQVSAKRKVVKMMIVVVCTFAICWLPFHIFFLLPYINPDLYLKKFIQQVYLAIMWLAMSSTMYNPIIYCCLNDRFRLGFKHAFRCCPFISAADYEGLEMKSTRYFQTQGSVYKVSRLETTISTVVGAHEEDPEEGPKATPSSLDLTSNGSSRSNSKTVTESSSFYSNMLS

## CC(=O)N[C@@H](Cc1c[nH]c2ccccc12)C(=O)OCc1cc(C(F)(F)F)cc(C(F)(F)F)c1 [L-732,138, Ac-Trp-O-3’,5’-Bzl(CF3)2]
  Ke, GPI, Substance P antagonist: 250 ± 87 nM
